Source: ChEMBL document CHEMBL1201862, “PubChem BioAssay data set” (2004)
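The compound was tested at five concentrations on cells cultured in 96-well plates, with a 48-hour exposure period. GI50 is the concentration that inhibits growth by half.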 Calls of active or inactive are those of the source. Cut-off read from the data, not from the text of the source: active = GI50 up to about 1.1 µM and inactive = higher.

How the values were obtained:
Experiment in all cases: DTP human tumour cell line panel, 48 h
IGROV-1 = tested on: IGROV-1
SK-MEL-5 = tested on: SK-MEL-5
KM12 = tested on: KM12
HL-60 = tested on: HL-60
CAKI-1 = tested on: CAKI-1
HOP-92 = tested on: HOP-92
SNB-19 = tested on: SNB-19
SK-MEL-28 = tested on: SK-MEL-28
CCRF-CEM = tested on: CCRF-CEM
SN12C = tested on: SN12C
OVCAR-4 = tested on: OVCAR-4
EKVX = tested on: EKVX
UACC-62 = tested on: UACC-62
HCT-116 = tested on: HCT-116
OVCAR-3 = tested on: OVCAR-3
NCI-H226 = tested on: NCI-H226
U-251 = tested on: U-251
NCI-H460 = tested on: NCI-H460
UACC-257 = tested on: UACC-257
SF-295 = tested on: SF-295

Measured: GI50

CC1(C)C(=O)c2ccccc2OC1N1CCN(C2Oc3ccccc3C(=O)C2(C)C)CC1 (stereo not given)
inactive: IGROV-1 > 100 µM | SK-MEL-5 > 100 µM | KM12 > 100 µM | HL-60 > 100 µM | CAKI-1 > 100 µM | HOP-92 > 100 µM | SNB-19 > 100 µM | SK-MEL-28 > 100 µM | CCRF-CEM > 100 µM | SN12C > 100 µM | OVCAR-4 > 100 µM | EKVX > 100 µM | UACC-62 82.6 µM | HCT-116 82.4 µM | OVCAR-3 > 100 µM | NCI-H226 > 100 µM | U-251 > 100 µM | NCI-H460 > 100 µM

CC(C)C1NC(=O)CC(c2ccccc2)N(N=O)C1c1ccccc1 (stereo not given)
inactive: IGROV-1 > 100 µM | SK-MEL-5 > 83.6 µM | UACC-257 > 100 µM | KM12 > 100 µM | HL-60 74.5 µM | CAKI-1 > 100 µM | HOP-92 > 51.3 µM | SNB-19 > 100 µM | SK-MEL-28 > 100 µM | CCRF-CEM > 100 µM | SN12C > 100 µM | OVCAR-4 > 100 µM | EKVX > 100 µM | UACC-62 > 100 µM | HCT-116 > 100 µM | SF-295 > 100 µM | OVCAR-3 > 68.9 µM | NCI-H226 > 100 µM | U-251 > 100 µM | NCI-H460 > 100 µM

COc1cc(C2c3cc4c(cc3OC3(O)COC(=O)C23)OCO4)cc(OC)c1OC (stereo not given)
inactive: IGROV-1 48.9 µM | SK-MEL-5 > 10 µM | UACC-257 55 µM | HL-60 30.3 µM | CAKI-1 51.3 µM | SNB-19 53.5 µM | CCRF-CEM 34.7 µM | SN12C 67 µM | OVCAR-4 > 100 µM | EKVX 78.3 µM | UACC-62 44.3 µM | HCT-116 51.1 µM | SF-295 26.9 µM | OVCAR-3 33 µM | NCI-H226 32.6 µM | U-251 38.4 µM | NCI-H460 56.2 µM

Cc1cc(Cl)ccc1NC1=NC(=O)C(CC(=O)Nc2cccc(Cl)c2)S1 (stereo not given)
inactive: IGROV-1 40.3 µM | SK-MEL-5 24.9 µM | UACC-257 38.8 µM | KM12 35.2 µM | HL-60 9.16 µM | CAKI-1 8.79 µM | HOP-92 14.2 µM | SNB-19 > 100 µM | SK-MEL-28 > 100 µM | CCRF-CEM 22.6 µM | SN12C 53.5 µM | OVCAR-4 29.2 µM | EKVX > 100 µM | UACC-62 22.2 µM | HCT-116 24.2 µM | SF-295 18.5 µM | OVCAR-3 43 µM | NCI-H226 > 100 µM | U-251 33.2 µM | NCI-H460 62.2 µM

CCCn1cc2c(O)nc(SC)nc2n1
inactive: IGROV-1 > 100 µM | SK-MEL-5 > 100 µM | UACC-257 > 100 µM | KM12 > 100 µM | HL-60 > 100 µM | CAKI-1 > 100 µM | HOP-92 > 100 µM | SNB-19 > 100 µM | SK-MEL-28 > 100 µM | CCRF-CEM > 100 µM | SN12C > 100 µM | OVCAR-4 91.4 µM | EKVX > 100 µM | HCT-116 > 100 µM | SF-295 > 100 µM | NCI-H226 19.9 µM | U-251 > 100 µM | NCI-H460 > 100 µM

COc1ccc(C2C(Cl)C(=O)N2NC(=O)c2ccccc2O)cc1 (stereo not given)
inactive: IGROV-1 > 100 µM | SK-MEL-5 > 100 µM | UACC-257 > 100 µM | KM12 > 100 µM | HL-60 > 100 µM | HOP-92 > 100 µM | SNB-19 > 100 µM | SK-MEL-28 > 100 µM | CCRF-CEM > 100 µM | SN12C > 100 µM | OVCAR-4 > 100 µM | EKVX > 100 µM | UACC-62 > 100 µM | HCT-116 > 100 µM | SF-295 > 100 µM | OVCAR-3 > 100 µM | U-251 > 100 µM | NCI-H460 > 100 µM

C=CCN(N=O)C(=O)N(CCC)CCCCC(NC(C)=O)C(=O)NCc1ccccc1 (stereo not given)
inactive: IGROV-1 > 100 µM | SK-MEL-5 67.9 µM | UACC-257 > 100 µM | KM12 59.4 µM | HL-60 21 µM | CAKI-1 48.2 µM | HOP-92 23.2 µM | SNB-19 > 100 µM | SK-MEL-28 > 100 µM | CCRF-CEM 33.7 µM | SN12C > 100 µM | OVCAR-4 64.1 µM | EKVX > 100 µM | UACC-62 > 100 µM | SF-295 > 100 µM | OVCAR-3 75.5 µM | NCI-H226 > 100 µM | U-251 > 100 µM | NCI-H460 > 100 µM
